Measurements as given in paper PMC6372667 (Experimental & Molecular Medicine, 2019).
Read-outs that look alike come from different tables or passages of the source.

Key:
[1] = test system: NIH3T3 mouse embryo fibroblasts; assay: MTT cytotoxicity assay, NIH3T3; type: cell-based; details: 24 h
Procedure: (§1) Cytotoxicity was assessed using the MTT assay. Briefly, the cells were seeded into a 96-well plate at a density of 1×10^5 cells per well in 100 µL of corresponding media and incubated at 37 °C in an incubator under 5% CO2 tension for 24 h. The culture media were then replaced with 100 µL of fresh serum-free media in the presence of varied concentrations of pterosin derivatives, and cells were incubated for an additional 24 h. The control was treated with an equal amount of DMSO present in the assay for a 5 mM concentration. Then, 100 µL of MTT solution (0.5 mg/mL in Phosphate Buffered Saline (PBS)) was added to each culture. To measure the proportion of surviving cells, the media were replaced with 100 µL of DMSO 2 h after the administration of MTT solution. The absorbance was measured at 570 nm using a spectrophotometric plate reader (Molecular Devices, Sunnyvale, CA, USA).

B16F10 mouse melanoma = assay: MTT cytotoxicity assay, B16F10; type: cell-based; details: 24 h
Procedure: as §1

C6 rat glial cells = assay: MTT cytotoxicity assay, C6; type: cell-based; details: 24 h
Procedure: as §1

[2] = molecular target: T1, BACE1 (human recombinant β-secretase) (Homo sapiens, UniProt P56817); assay: In vitro BACE1 FRET enzyme assay; type: biochemical
T1 sequence (P56817 46-501): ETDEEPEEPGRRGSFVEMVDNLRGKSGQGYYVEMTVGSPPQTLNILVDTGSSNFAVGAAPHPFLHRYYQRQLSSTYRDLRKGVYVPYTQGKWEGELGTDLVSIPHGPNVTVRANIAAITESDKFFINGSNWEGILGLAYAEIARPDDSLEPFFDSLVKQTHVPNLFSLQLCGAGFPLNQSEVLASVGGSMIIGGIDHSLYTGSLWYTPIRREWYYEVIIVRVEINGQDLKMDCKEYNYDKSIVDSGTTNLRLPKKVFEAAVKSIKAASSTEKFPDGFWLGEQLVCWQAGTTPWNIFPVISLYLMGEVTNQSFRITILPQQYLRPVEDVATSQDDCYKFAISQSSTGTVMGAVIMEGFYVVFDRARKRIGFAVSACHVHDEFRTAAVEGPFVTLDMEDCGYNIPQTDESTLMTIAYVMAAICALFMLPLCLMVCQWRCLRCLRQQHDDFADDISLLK
Description: (§2) BACE1 (human recombinant β-secretase) ([…]) and the BACE1 FRET (fluorescence resonance energy transfer) assay kit Red were purchased from ThermoFisher Scientific (P2985; Waltham, MA, USA). […] For the cell culture experiment, Dulbecco’s modified Eagle’s medium (DMEM), Opti-MEM, fetal bovine serum (FBS), and penicillin/streptomycin were obtained from Capricorn Scientific (Ebsdorfergrund, Germany). β-secretase inhibitor III (β-SI) was purchased from Calbiochem (Darmstadt, Germany). The protease inhibitor mixture (a mixture of AEBSF, pepstatin A, E-64, bestain, leupeptin, and aprotinin) was purchased from Sigma-Aldrich (St. Louis, MO, USA). Enzyme-linked immunosorbent assay (ELISA) kits for Aβ40 and Aβ42 were obtained from IBL (Kunma, Japan). All chemicals and solvents used were reagent grade, purchased from commercial sources, and used as received.
The BACE1 FRET assay was carried out according to the manufacturer’s instructions with slight modifications as previously described. The assay was performed in a […] black plate using a multi-pipette.

[3] = test system: SH-SY5Y human neuroblastoma; assay: MTT cytotoxicity assay, SH-SY5Y; type: cell-based; details: 24 h
Procedure: as §1

[4] = test system: SH-SY5Y, C6, NIH3T3 and B16F10 cell lines; assay: MTT cytotoxicity assay, all cell lines tested; type: cell-based
Procedure: as §1

BACE1 = details: cited from earlier work
[5] = test system: aged triple transgenic mouse models of AD (3xTg-AD); details: 25 mg/kg i.p. every 48 h for 3 months, mice 21–24 months old ref 48; cited from earlier work
[6] = design: method as in PMID 23565574; details: PAMPA-BBB ref 49; cited from earlier work
AChE = details: cited from earlier work
BChE = test system: BChE; design: method as in PMID 18274286; details: cited from earlier work
horse serum BChE [7] = molecular target: T2, horse serum BChE (Equus caballus, UniProt P81908); assay: Kinetic analysis of BChE inhibition (Dixon and Lineweaver−Burk plots); type: biochemical
T2 construct: horse serum BChE (EC 3.1.1.8); purchased Sigma-Aldrich Co; host or cells: horse serum
T2 sequence (P81908 whole entry): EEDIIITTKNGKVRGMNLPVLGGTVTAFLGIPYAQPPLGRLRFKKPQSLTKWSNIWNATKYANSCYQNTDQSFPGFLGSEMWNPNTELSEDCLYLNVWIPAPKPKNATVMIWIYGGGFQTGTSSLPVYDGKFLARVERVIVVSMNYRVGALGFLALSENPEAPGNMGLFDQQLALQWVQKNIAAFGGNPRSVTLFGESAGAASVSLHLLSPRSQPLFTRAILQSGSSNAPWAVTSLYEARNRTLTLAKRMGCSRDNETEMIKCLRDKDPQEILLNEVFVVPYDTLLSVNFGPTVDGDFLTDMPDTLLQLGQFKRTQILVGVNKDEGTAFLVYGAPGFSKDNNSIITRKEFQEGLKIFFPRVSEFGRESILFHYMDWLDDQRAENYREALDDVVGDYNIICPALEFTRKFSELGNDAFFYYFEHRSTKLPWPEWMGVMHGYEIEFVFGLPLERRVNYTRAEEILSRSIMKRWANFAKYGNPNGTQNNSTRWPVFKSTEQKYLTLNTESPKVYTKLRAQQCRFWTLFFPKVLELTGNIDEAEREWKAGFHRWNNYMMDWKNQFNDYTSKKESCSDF
Procedure: (§3) The Ki was determined by interpretation of the Dixon plot, with the value of the x-axis intercept taken as −Ki.
Dixon plots for BChE inhibition by pterosin derivatives. (2S,3R)-Pterosin C (A), (2R,3R)-pterosin C (B), and (2R)-pterosin B (C) were tested in the presence of substrate concentrations of 0.2 mM (●), 0.4 mM (○), and 0.8 mM (▼).
Dixon plots for BChE inhibition by pteroside derivatives. (2R)-pteroside B (A), (2R,3R)-pteroside C (B), and (3S)-pteroside D (C) were tested in the presence of substrate concentrations of 0.2 mM (●), 0.4 mM (○), and 0.8 mM (▼). Lineweaver-Burk plots for BChE inhibition were generated with inhibitor concentrations of 0 µM (Δ), 4 µM (▼), 20 µM (○), and 100 µM (●) for (2R)-pteroside B (D); 0 µM (Δ), 0.8 µM (▼), 4 µM (○), and 20 µM (●) for (2R,3R)-pteroside C (E) and (3S)-pteroside D (F).

horse serum BChE [8] = molecular target: T2, horse serum BChE; assay: In vitro cholinesterase enzyme assay (Ellman), BChE; type: biochemical
Description: as §2
(§4) The inhibitory activities of pterosin derivatives against cholinesterases were measured using the method developed by Ellman et al.[32]. The reaction mixture contained 140 μL of sodium phosphate buffer (pH 8.0), 20 μL of test sample solution (final concentration of the compound 100 μM), and 20 μL of AChE or BChE solution, mixed and incubated for 15 min at room temperature. […] The reactions were initiated following the addition of 10 μL of DTNB and 10 μL of acetyl thiocholine iodide for the AChE assay or butyryl thiocholine chloride for the BChE assay in 96-well microplates, which were incubated for 15 min.

Electric eel AChE [9] = molecular target: T3, Electric eel AChE (Electrophorus electricus, UniProt O42275); assay: Kinetic analysis of AChE inhibition (Dixon and Lineweaver−Burk plots); type: biochemical
T3 construct: purchased Sigma-Aldrich Co
T3 sequence (O42275 24-633): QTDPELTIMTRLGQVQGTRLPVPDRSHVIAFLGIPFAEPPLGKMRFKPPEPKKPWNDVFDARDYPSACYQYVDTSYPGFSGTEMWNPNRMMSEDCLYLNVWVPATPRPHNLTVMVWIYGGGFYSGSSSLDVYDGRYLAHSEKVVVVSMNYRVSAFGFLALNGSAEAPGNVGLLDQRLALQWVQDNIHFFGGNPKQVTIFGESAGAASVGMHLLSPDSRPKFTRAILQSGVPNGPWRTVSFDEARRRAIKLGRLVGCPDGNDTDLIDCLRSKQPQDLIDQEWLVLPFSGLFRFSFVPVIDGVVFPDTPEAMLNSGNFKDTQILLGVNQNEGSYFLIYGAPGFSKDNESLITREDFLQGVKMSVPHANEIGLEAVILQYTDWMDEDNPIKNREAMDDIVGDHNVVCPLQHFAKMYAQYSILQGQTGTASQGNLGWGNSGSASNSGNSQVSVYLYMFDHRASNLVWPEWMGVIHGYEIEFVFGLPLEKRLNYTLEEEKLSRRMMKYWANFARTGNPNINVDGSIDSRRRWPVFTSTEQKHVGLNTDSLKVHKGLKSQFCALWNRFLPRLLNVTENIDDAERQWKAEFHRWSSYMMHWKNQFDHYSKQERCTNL
Procedure: as §3
Dixon plots for AChE inhibition by pterosin derivatives. (2S,3R)-Pterosin C (A), (2R,3R)-pterosin C (B), and (2R)-pterosin B (C) were tested in the presence of substrate concentrations of 0.1 mM (●), 0.3 mM (○), and 0.6 mM (▼). Lineweaver-Burk plots for AChE inhibition were generated with inhibitor concentrations of 0 µM (Δ), 4 µM (▼), 20 µM (○), and 100 µM (●) for (2S,3R)-pterosin C (D) and (2R,3R)-pterosin C (E); and 0 µM (Δ), 2 µM (▼), 10 µM (○), and 50 µM (●) for (2R)-pterosin B (F).
Dixon plots for AChE inhibition by pteroside derivatives. (2R)-pteroside B (A), (2R,3R)-pteroside C (B), and (3S)-pteroside D (C) were tested in the presence of substrate concentrations of 0.1 mM (●), 0.3 mM (○), and 0.6 mM (▼). Lineweaver-Burk plots for AChE inhibition were generated with inhibitor concentrations of 0 µM (Δ), 0.8 µM (▼), 4 µM (○), and 20 µM (●) for (2R)-pteroside B (D), (2R,3R)-pteroside C (E), and (3S)-pteroside D (F).

in vitro = in vitro ADME
Procedure: PAMPA (parallel artificial membrane permeation assay) was used as a high-throughput assay to predict BBB permeation. Porcine polar brain lipid (PBL) was used as an artificial membrane to predict BBB permeation. Initially, the test compound was dissolved in DMSO at 5 mg/mL. This compound stock solution (10 µL) was diluted 200-fold in a universal buffer at pH 7.4 and mixed with a multi 8-channel pipette to obtain the secondary stock solution (final concentration 25 µg/mL). The secondary stock solution (200 µL) was placed in the donor wells. The filter membrane was coated with PBL in dodecane (4 mL volume of 20 mg/mL PBL in dodecane), and 5 µL of BBB-1 lipid solution was spread on PBL by pipette. The acceptor well was filled with […] of Acceptor Sink Buffer. The acceptor filter plate was cautiously positioned on the donor plate to assemble a “sandwich” (comprising an aqueous acceptor, artificial lipid membrane and aqueous donor with test compound on the top, middle and bottom, respectively). The test compound diffuses from the donor well to the acceptor well through the lipid membrane. After 4 h of incubation at pH 7.4 and 25 °C, the concentration of the compound in the acceptor, donor, reference and blank wells was estimated with a UV plate reader, Epoch Microplate Spectrophotometer (BioTek Instruments, Inc., Winooski, VT, USA). […] Samples were analyzed in quadruplets, and the average of the four runs was reported. To monitor the consistency of the analysis set, quality control standards were run with each sample set.
PAMPA-BBB, an in vitro artificial membrane permeability assay for the BBB, is one of the most reliable physicochemical screening tools in the early stage discovery of CNS-targeted drugs. The PAMPA-BBB system models the transcellular passive diffusion of chemicals across the BBB and measures strictly passive transport mechanisms via an artificial lipid membrane on effective permeability (Pe, cm/s).

Electric eel AChE [10] = molecular target: T3, Electric eel AChE; assay: In vitro cholinesterase enzyme assay (Ellman), AChE; type: biochemical
Description: as §2, §4

[11] = molecular target: T1, BACE1 (human recombinant β-secretase); assay: Kinetic analysis of BACE1 inhibition (Dixon and Lineweaver−Burk plots); type: biochemical
Procedure: as §3
Dixon plots for BACE1 inhibition by pterosin derivatives.
Dixon plots for BACE1 inhibition by pteroside derivatives.

[12] = Dixon and Lineweaver−Burk plots

Structure (SMILES): Cc1cc2c(c(C)c1CCOC1OC(CO)C(O)C(O)C1O)C(=O)C(C)(CO)C2 [(2S)-Pteroside A, (2S)-pteroside A]
- LD50 Based on MTT Assay, NIH3T3 [1]: >5,000 µM
- LD50 Based on MTT Assay, B16F10 (B16F10 mouse melanoma): >5,000 µM
- LD50 Based on MTT Assay, C6 (C6 rat glial cells): >5,000 µM
- IC50 ([2]; mean ± S.D. of three experiments): 84.6 ± 6 µM
- LD50 Based on MTT Assay, SY-SY5Y [3]: >5,000 µM
- LD50, cell lines tested [4]: above 5 mM

Structure (SMILES): CC#Cc1cncc(-c2ccc3c(c2)[C@@]2(N=C(C)C(N)=N2)[C@]2(CC[C@H](OC)CC2)C3)c1 [AZD3293]
- Ki (BACE1): 0.0004 µM

Structure (SMILES): O=c1c(O)c(-c2ccc(O)c(O)c2)oc2cc(O)cc(O)c12 [Quercetin, quercetin]
- Effect on AD pathology [5]: effectively ameliorated AD pathology and tauopathy
- log Pe [6]: approximately −7
- Influence on BChE activity (BChE): negligible influence

Structure (SMILES): Cc1cc2c(c(C)c1CCO)C(=O)[C@@H](C)[C@H]2O [(2S,3R)-Pterosin C, (2S,3R)-pterosin C]
- Ki (horse serum BChE [7]): 29.9 µM
- Inhibition type BChE (horse serum BChE [7]; [12]): Noncompetitive
- IC50 (horse serum BChE [8]): 44.3 ± 1 µM
- LD50 Based on MTT Assay, NIH3T3 [1]: >5,000 µM
- Ki (Electric eel AChE [9]): 16.3 µM
- Inhibition type AChE (Electric eel AChE [9]; [12]): Mixed-type
- LD50 Based on MTT Assay, B16F10 (B16F10 mouse melanoma): >5,000 µM
- LD50 Based on MTT Assay, C6 (C6 rat glial cells): >5,000 µM
- IC50 [2]: 23.1 ± 2.9 µM
- log Pe (in vitro): -5.65
- Papp at 4 h, 25 µg/mL (in vitro; pig, PAMPA, pH 7.4, read-out: PAMPA-BBB permeability Pe): 2.34 ± 0.81 ×10⁻⁶ cm/s
- LD50 Based on MTT Assay, SY-SY5Y [3]: 2,940 ± 260 µM
- IC50 (Electric eel AChE [10]): 12.8 ± 0.79 µM
- Ki [11]: 33.8 µM
- Inhibition type BACE1 [11, 12]: Noncompetitive
